The numbers were not newly measured in patent US20250205258A1 (priority 2022, published 2025), which cites them from elsewhere.

Structures are written as SMILES.

In data set [1] the test system is liver cancer stem cell markers CD133, CD44, and ESA. The settings on record: cited from earlier work.
The test system of data set [2] is melanoma A375 cells. The conditions noted are these: concentration- and time-dependent; cited from earlier work.
Data set [3] has as its system ovarian cancer cells SK—OV-3. The settings on record: concentration- and time-dependent, EGFR/AKT/ERK signaling pathway; cited from earlier work.
Data set [4] concerns STAT3 signaling pathway. The conditions noted are these: by inhibiting the STAT3 signaling pathway; cited from earlier work.
For data set [5], the system named is neuroblastoma cells U87. The conditions noted are these: through both apoptosis and necrosis; cited from earlier work.

On to `C[C@]12CC[C@H](O)C[C@H]1CC[C@@H]1[C@@H]2CC[C@]2(C)[C@@H](c3ccc(=O)oc3)CC[C@]12O` [bufalin, Bufalin], for which, in data set [1], the “expression of liver cancer stem cell markers CD133, CD44, and ESA” value is on record as “significantly inhibit”. In addition, the “proliferation of melanoma A375 cells” value in data set [2] is “inhibits the proliferation”. Moreover, the “proliferation of ovarian cancer cells SK—OV-3” value in data set [3] is on record as “inhibit the proliferation”. Besides, in data set [4], the tumor microenvironment-mediated angiogenesis result is reported as “suppress tumor microenvironment-mediated angiogenesis”. Further, the “death of neuroblastoma cells U87” value in data set [5] was “induces the death”.
